Assay results taken from patent EP0292291B1, “Linear and cyclic analogs of alpha-msh fragments with extraordinary potency” (UNIVERSITY PATENTS, INC., priority 1987, dated 1988).
Read-outs that look alike come from different tables or passages of the source.

Legend:
[1] = test system: Lizard (Anolis carolinensis) Skin; assay type: cell-based; conditions: for Biological Potency Lizard: relative to alpha-MSH = 1.0
Excerpt: Based upon the structural relationship of alpha-MSH (and its analogues and fragments) to its biological potency, using in vitro a frog skin bioassay system, the active site of alpha-MSH appears to be the common active core sequence suitably modified Ac-Met-Glu-His-Phe-Arg-Trp-Gly-NH₂. This fragment (Alpha-MSH₄₋₁₀) has been synthesized and tested for its melanocyte stimulating activity in frog skin and shown to be a weak agonist when compared to the native hormone. The amino acid exchanges in position 5(Glu) and 10(Gly) have not, previous to the making of the present invention, been investigated. […] The following table summarizes some of these studies.
The biological potencies of alpha-MSH, the linear, and the cyclic analogues were determined by their ability to stimulate melanosome dispersion in vitro in the frog and lizard bioassays. These in vitro assays provide clear cut dose response curves (between 2.5 x 10⁻¹¹ and 4 x 10⁻¹⁰ M) and can detect minimal concentration of alpha-MSH of about 10⁻¹¹ M. The assays are based upon the centrifugal dispersion of melanosomes (melanin granules) within the dendritic processes of integumental dermal melanophores leading to darkening of the skin. All the test solutions were prepared via serial dilutions from a stock solution (10⁻⁴ M). The frogs (Rans pipiens) used in these evaluations were obtained from Kons Scientific, Germantown, WI, and the lizards (Anolis carolinensis) were from the Snake Farm, La Place, LA.

Frog (Rana pipiens) Skin = conditions: earlier studies, cited from earlier work; for Relative Potency Frog: relative to alpha-MSH = 1.0
[2] = test system: Lizard (Anolis carolinensis) Skin; conditions: relative to alpha-MSH = 1.0; earlier studies; cited from earlier work

Row | Substance | Residual Activity Lizard ([1]; cyclic analogues, p = prolonged action) | Biological Potency Lizard ([1]; cyclic analogues) | Residual Activity Lizard ([1]; linear analogues, P = prolonged action) | Biological Potency Lizard ([1]; linear analogues) | Relative Potency Frog (Frog (Rana pipiens) Skin) | Relative Potency Lizard [2] | melanocyte stimulating activity in frog skin (Frog (Rana pipiens) Skin; result in words, compared to the native hormone)
1 | alpha-melanotropin [alpha-MSH] | p(-) | 1.0 | P(-) | 1.0 | 1.0 | 1.0 | 
2 | Ac-Met-Glu-His-Phe-Arg-Trp-Gly-NH₂ [Ac-alpha -MSH₄₋₁₀NH₂] |  |  |  |  | 0.0003 | 0.004 | weak agonist
